Measurements from article PMC3001897, “High-Throughput Chemical Screen Identifies a Novel Potent Modulator of Cellular Circadian Rhythms and Reveals CKIα as a Clock Regulatory Kinase” (PLoS Biology, 2010).

Legend:
ERK2 = molecular target: T1, ERK2 (Homo sapiens, UniProt P28482); assay: In vitro kinase assay, ERK2; type: biochemical
T1 construct: purchased Millipore 14-550
Experimental: (§1) The CKIδ, CKIα, CDK7, and ERK2 kinase assays were performed on 384-well plates (10 µl volume). The reaction mixture was as follows: for CKIδ, 2 ng/µl CKIδ (Millipore, 14-520), 50 µM peptide substrate RKKKAEpSVASLTSQCSYSS corresponding to human PER2 Lys659-Ser674 [47], and CKI buffer (40 mM Tris, 10 mM MgCl2, 0.5 mM DTT, 0.1 mg/ml BSA, pH 7.5); for CKIα, 1 ng/µl CKIα (Invitrogen, PV3850), 50 µM CKI peptide substrate (Anaspec, 60547-1), and CKI buffer; for CDK7, 5 ng/µl CDK7 (Millipore, 14-476), 100 µM Cdk7/9 peptide substrate (Millipore, 12-526), and CKI buffer; for ERK2, 1.5 ng/µl ERK2 (Millipore, 14-550), 0.8 µg/µl MBP (Millipore, 13-104), and ERK buffer (50 mM Tris, 10 mM MgCl2, 0.5 mM DTT, 1 mM EGTA, pH 7.5). Five hundred nl of compound was added to the mixture (final 5% DMSO), and the reaction was started by adding ATP (final 5 µM). After incubation at 30°C for 3h, 10 µl of Kinase-Glo Luminescent Kinase Assay reagent (Promega) was added, and the luminescence was detected to determine remaining ATP amount. […] IC50 value was obtained by using Prism software (GraphPad Software).

CDK7 = molecular target: T2, CDK7 (Homo sapiens, UniProt P50613); assay: In vitro kinase assay, CDK7; type: biochemical; conditions: ATP 5 µM; from Figure 2E
T2 construct: purchased Millipore 14-476
Experimental: as §1

p38α = p38α (Homo sapiens, UniProt Q16539); assay: In vitro kinase assay, p38α (unpublished data); type: biochemical
CKIδ [1] = molecular target: T3, CKIδ (Homo sapiens, UniProt P48730); assay: Cell-based PER1 degradation assay (PER1-LUC), CKIδ
Experimental: (§2) HEK293T cells (6.0×10^4 cells) were reverse transfected on 96-well white solid-bottom plates by Lipofectamine 2000 with 40 ng each of expression vectors for C-terminally luciferase-fused PER1 (in p3XFLAG-CMV-14) and N-terminally HA-tagged kinase (in p3XFLAG-CMV-14). For luciferase (in p3XFLAG-CMV-14), 2 ng of expression vector with 38 ng of empty vector was used because of its efficient expression. After 48 h, the medium was supplemented with luciferin (final 1 mM) and HEPES-NaOH (pH 7.2; final 10 mM). After 1 h, cycloheximide (final 20 µg/ml) was added to the medium, and the plate was covered with optically clear film. The luminescence was recorded every 10 min by using the Tecan luminometer. Half-life was obtained by using Prism software (GraphPad Software).

CKIα [2] = molecular target: T4, CKIα (Homo sapiens, UniProt P48729); assay: Cell-based PER1 degradation assay (PER1-LUC), CKIα
Experimental: as §2

adult tail fibroblasts = assay: Circadian period in adult tail fibroblasts from mPer2Luc knockin mice; type: cell-based, mouse
Experimental: (§3) Luminescence rhythms of adult tail fibroblasts and embryonic fibroblasts from mPer2^Luc knockin mice were analyzed similarly to U2OS cells, except that 1,800 cells were plated per well. Because of the low luminescence intensity of the fibroblasts, the higher sensitivity ViewLux imager was used for rhythm recording.

lung explants = assay: Circadian period in lung explants from mPer2Luc knockin mice; type: cell-based, mouse; conditions: 0 to 9 µM
Experimental: (§4) Explants of lung and SCN were dissected from mPer2^Luc knockin mice and cultured in explant medium as described previously. The medium was changed every week with increasing concentration of longdaysin each time (from 0 to 9 µM, final 0.7% DMSO). The luminescence was recorded every 10 min with LumiCycle luminometer (Actimetrics), and the period parameter was obtained by using LumiCycle Analysis software (Actimetrics).

SCN explants = assay: Circadian period in SCN explants from mPer2Luc knockin mice; type: cell-based, mouse; conditions: 0 to 9 µM
Experimental: as §4

embryonic fibroblasts = assay: Circadian period in embryonic fibroblasts from CKIδ deficient mPer2Luc knockin mice; type: cell-based, mouse
Experimental: as §3

[3] = system: larval per3-luc zebrafish; assay: In vivo luminescence rhythms in per3-luc zebrafish; conditions: up to 9 µM
Experimental: The per3-luc transgenic line was obtained from Zebrafish International Resource Center. Hemizygote larval fish were entrained in 12 h light/12 h dark cycles from day 3 to 6 postfertilization. They were then placed in an individual well of a 96-well white solid-bottom plate with 180 µl of E3 solution (5 mM NaCl, 0.17 mM KCl, 0.33 mM CaCl2, and 0.33 mM MgSO4, pH 7.0) containing 0.5 mM luciferin, 0.013% Amquel Plus Instant Water Detoxifier (Kordon brand; Novalek, Hayward, California, United States), and various concentrations of longdaysin (final 0.1% DMSO). The plate was covered with optically clear film, and the luminescence was recorded every 36 min by using the Tecan luminometer at 25°C. The period parameter was obtained from the luminescence rhythm by using MultiCycle software.

[4] = system: CKIα- and CKIδ-accelerated degradation of PER1; assay: Flag-tagged PER1 degradation by Western blot in HEK293T cells; type: cell-based; conditions: 24 h
CKIδ [5] = molecular target: T3, CKIδ; assay: In vitro kinase assay, CKIδ; type: biochemical; design: purchased Millipore 14-520; conditions: ATP 5 µM; from Figure 2E
Experimental: as §1

CKIα [6] = molecular target: T4, CKIα; assay: In vitro kinase assay, CKIα; type: biochemical; design: purchased Invitrogen PV3850; conditions: ATP 5 µM; from Figure 2E
Experimental: as §1

[7] = HEK293T cells, 24 h treatment, from Figure 4E

T3 sequence (P48730 whole entry, species assumed, the tested form may be a part): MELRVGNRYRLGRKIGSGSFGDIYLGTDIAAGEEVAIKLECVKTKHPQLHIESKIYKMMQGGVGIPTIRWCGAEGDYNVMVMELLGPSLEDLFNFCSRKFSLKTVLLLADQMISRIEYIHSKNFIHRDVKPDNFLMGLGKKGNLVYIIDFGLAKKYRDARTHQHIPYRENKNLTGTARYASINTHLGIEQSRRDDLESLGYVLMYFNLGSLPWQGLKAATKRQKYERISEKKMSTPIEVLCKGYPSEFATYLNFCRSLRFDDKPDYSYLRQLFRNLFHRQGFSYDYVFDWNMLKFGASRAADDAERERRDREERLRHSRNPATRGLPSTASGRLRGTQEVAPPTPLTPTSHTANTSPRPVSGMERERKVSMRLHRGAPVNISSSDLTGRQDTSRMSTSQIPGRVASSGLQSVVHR
T4 sequence (P48729 whole entry): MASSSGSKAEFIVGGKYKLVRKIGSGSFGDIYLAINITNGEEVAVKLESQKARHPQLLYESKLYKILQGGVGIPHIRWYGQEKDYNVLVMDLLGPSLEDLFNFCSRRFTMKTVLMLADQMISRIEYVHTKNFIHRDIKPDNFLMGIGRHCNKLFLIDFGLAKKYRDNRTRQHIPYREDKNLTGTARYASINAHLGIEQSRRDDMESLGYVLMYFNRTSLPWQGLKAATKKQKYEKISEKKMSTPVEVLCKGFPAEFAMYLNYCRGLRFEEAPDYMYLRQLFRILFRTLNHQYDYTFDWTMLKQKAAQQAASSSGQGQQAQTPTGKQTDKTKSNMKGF
T1 sequence (P28482 whole entry, species assumed): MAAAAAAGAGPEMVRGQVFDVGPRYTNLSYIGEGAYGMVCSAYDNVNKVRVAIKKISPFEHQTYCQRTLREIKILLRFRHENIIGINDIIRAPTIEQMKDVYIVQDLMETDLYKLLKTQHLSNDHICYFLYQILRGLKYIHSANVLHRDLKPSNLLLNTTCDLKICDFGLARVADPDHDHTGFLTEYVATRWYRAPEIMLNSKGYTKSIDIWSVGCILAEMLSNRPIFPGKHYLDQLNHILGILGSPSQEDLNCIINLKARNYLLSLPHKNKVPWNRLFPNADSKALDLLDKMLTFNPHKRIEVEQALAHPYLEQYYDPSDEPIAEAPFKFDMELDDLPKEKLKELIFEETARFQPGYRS
T2 sequence (P50613 whole entry): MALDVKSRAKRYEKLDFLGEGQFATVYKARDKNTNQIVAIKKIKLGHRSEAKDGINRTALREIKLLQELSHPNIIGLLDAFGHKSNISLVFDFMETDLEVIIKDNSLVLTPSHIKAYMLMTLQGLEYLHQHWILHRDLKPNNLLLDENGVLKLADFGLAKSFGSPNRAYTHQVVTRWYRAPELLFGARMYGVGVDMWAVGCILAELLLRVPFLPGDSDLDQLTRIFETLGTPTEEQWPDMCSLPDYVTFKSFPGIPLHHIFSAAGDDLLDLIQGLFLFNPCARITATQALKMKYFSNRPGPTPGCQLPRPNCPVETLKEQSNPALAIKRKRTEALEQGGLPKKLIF
T2 sequence (P51946 whole entry partner): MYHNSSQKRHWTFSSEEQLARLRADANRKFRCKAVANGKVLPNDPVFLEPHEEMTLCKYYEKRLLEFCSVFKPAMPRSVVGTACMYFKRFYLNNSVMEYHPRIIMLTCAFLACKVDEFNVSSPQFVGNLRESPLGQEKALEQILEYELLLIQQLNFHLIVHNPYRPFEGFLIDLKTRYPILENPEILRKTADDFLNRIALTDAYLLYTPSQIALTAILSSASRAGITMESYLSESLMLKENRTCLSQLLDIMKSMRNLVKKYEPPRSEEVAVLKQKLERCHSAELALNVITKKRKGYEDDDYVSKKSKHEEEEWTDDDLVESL
T2 sequence (P51948 whole entry partner): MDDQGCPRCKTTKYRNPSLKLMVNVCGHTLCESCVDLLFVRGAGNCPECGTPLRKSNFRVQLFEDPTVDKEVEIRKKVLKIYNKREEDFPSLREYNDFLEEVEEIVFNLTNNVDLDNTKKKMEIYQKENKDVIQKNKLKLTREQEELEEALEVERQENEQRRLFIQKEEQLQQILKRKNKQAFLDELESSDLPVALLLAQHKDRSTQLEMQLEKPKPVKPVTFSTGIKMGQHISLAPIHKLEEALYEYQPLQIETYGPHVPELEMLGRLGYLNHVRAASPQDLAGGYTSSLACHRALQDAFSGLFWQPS
Sequence of p38α (Q16539 whole entry): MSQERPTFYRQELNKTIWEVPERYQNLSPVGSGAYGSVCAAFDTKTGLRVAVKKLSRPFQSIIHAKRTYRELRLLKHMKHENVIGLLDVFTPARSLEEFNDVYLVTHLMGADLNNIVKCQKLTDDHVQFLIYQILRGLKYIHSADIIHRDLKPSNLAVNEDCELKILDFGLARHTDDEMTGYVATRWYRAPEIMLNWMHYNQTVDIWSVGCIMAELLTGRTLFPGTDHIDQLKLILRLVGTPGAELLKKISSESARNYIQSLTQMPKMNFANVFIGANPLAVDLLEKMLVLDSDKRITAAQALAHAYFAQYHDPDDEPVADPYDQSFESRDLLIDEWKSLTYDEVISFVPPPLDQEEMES

CC(C)n1cnc2c(NCc3cccc(C(F)(F)F)c3)ncnc21 [Longdaysin, 9-isopropyl-N-(3-(trifluoromethyl)benzyl)-9H-purin-6-amine]
IC50 (ERK2; ATP 5 µM, from Figure 2E): 52 µM | Inhibition of ERK2 in vitro (ERK2; range of 3 to 24 µM): considerably inhibited ERK2 in vitro | IC50 (CDK7): 29 µM | Effect on p38α activity (p38α): much less effect | EC50 (CKIδ [1]; [7]): 9.7 µM | Effect on CKIδ-dependent degradation of PER1 (CKIδ [1]; HEK293T, 0 to 20 µM, 24 h): inhibited by longdaysin treatment in a dose-dependent manner | EC50 (CKIα [2]; [7]): 9.2 µM | Effect on CKIα-dependent degradation of PER1 (CKIα [2]; HEK293T, 0 to 20 µM, 24 h): inhibited by longdaysin treatment in a dose-dependent manner | Effect on circadian period (adult tail fibroblasts): dose-dependent period lengthening | Effect on circadian period (lung explants): dose-dependent period lengthening | Effect on circadian period (SCN explants): dose-dependent period lengthening | Effect on circadian period (embryonic fibroblasts; CKIδ deficient (CKIδΔ2/Δ2) cells): lengthened the period in a dose-dependent manner | Effect on circadian period (embryonic fibroblasts; wild type (CKIδ+/+) cells): lengthened the period in a dose-dependent manner | Effect on body size ([3]; 1 wk treatment): without affecting body size | Period lengthening in vivo ([3]; per3-luc reporter fish, constant darkness): > 10 h | Inhibition of CKIα and CKIδ effects on PER1 degradation ([4]; 10 µM): partially inhibited | Inhibition of CKIα and CKIδ effects on PER1 degradation ([4]; 20 µM): strongly inhibited | IC50 (CKIδ [5]): 8.8 µM | IC50 (CKIα [6]): 5.6 µM
